Assay results reported in patent publication US20100113540A1, “Azole and Thiazole Derivatives and Their Use” (ARGENTA DISCOVERY LIMITED, priority 2005, published 2010).
Structures can show the parent of a compound that is named as a salt.

target: T1, M3 muscarinic receptor (Homo sapiens, UniProt P20309); test: Muscarinic receptor radioligand binding assay ([3H]-NMS), M3; conditions: cell membranes expressing human M3 receptor
T1 construct: purchased
Procedure: The inhibitory effects of compounds of the present invention at the M3 muscarinic receptor and (in the case of Example 77) the β2 adrenergic receptor, were determined by the following binding assays:
Radioligand binding studies utilising [^3H]-N-methyl scopolamine ([^3H]-NMS) and commercially available cell membranes expressing the human muscarinic receptors (M2 and M3) were used to assess the affinity of muscarinic antagonists for M2 and M3 receptors. Membranes in TRIS buffer were incubated in 96-well plates with [^3H]-NMS and M3 antagonist at various concentrations for 3 hours. Membranes and bound radioligand were then harvested by filtration and allowed to dry overnight. Scintillation fluid was then added and the bound radioligand counted using a Can berra Packard Topcount scintillation counter

T1 sequence (P20309 whole entry): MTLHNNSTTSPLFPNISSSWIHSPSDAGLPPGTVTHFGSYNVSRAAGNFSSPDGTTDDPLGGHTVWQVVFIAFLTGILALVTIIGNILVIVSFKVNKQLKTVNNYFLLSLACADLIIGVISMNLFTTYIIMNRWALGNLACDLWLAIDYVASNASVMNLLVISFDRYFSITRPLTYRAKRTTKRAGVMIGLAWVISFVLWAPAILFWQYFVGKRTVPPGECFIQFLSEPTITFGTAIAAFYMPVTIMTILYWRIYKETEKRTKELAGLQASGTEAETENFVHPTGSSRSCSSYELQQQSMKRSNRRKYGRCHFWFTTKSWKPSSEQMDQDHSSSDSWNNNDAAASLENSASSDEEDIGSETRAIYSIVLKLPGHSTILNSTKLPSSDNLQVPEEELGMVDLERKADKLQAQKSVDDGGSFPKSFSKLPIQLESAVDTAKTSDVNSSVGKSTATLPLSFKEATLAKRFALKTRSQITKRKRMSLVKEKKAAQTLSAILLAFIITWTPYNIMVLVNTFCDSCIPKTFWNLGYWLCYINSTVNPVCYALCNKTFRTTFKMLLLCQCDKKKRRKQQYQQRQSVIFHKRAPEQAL

Ki [nM] | Structure (SMILES)
1 to 10 | CN(C)CCc1cnc(C(O)(c2ccccc2)C2CCCCC2)o1 (single isomer, unassigned) [Example 66]
< 1 | CN(C)CCc1cnc(C(O)(c2ccccc2)C2CCCCC2)o1 (single isomer, unassigned) [Example 67]
1 to 10 | C[N+](C)(CCCOc1ccccc1)CCc1cnc(C(O)(c2ccccc2)C2CCCCC2)o1 (single isomer, unassigned) [Example 68, {2-[2-(Cyclohexyl-hydroxy-phenyl-methyl)-oxazol-5-yl]-ethyl}-dimethyl-(3-phenoxy-propyl)-ammonium bromide]
< 1 | C[N+](C)(CCCOc1ccccc1)CCc1cnc(C(O)(c2ccccc2)C2CCCCC2)o1 (single isomer, unassigned) [Example 69, {2-[2-(Cyclohexyl-hydroxy-phenyl-methyl)-oxazol-5-yl]-ethyl}-dimethyl-(3-phenoxy-propyl)-ammonium bromide]
< 1 | C[N+](C)(CCCOc1ccccc1)Cc1cnc([C@@](O)(c2ccccc2)C2CCCC2)o1 (stereo in doubt) [Example 36, [2-(Cyclopentyl-hydroxy-phenyl-methyl)-oxazol-5-ylmethyl]-dimethyl-(3-phenoxy-propyl)-ammonium bromide]
> 10 | C[N+](C)(Cc1ccccc1)Cc1cnc([C@@](O)(c2ccccc2)C2CCCC2)o1 (stereo in doubt) [Example 60, Benzyl-[2-(cyclopentyl-hydroxy-phenyl-methyl)-oxazol-5-ylmethyl]-dimethyl-ammonium bromide]
> 10 | CN(C)Cc1cnc(C(C)(c2ccccc2)c2ccccc2)o1 [Example 30, [2-(1,1-Diphenyl-ethyl)-oxazol-5-ylmethyl]-dimethyl-amine]
> 10 | C[N+](C)(CCc1ccccc1)Cc1cnc([C@@](O)(c2ccccc2)C2CCCCC2)o1 [Example 31, [2-((S)-Cyclohexyl-hydroxy-phenyl-methyl)-oxazol-5-ylmethyl]-dimethyl-phenethyl-ammonium bromide]
< 1 | C[N+](C)(CCc1ccccc1)Cc1cnc([C@](O)(c2ccccc2)C2CCCCC2)o1 [Example 32, [2-((R)-Cyclohexyl-hydroxy-phenyl-methyl)-oxazol-5-ylmethyl]-dimethyl-phenethyl-ammonium bromide]
< 1 | CC(C)=CCC[N+](C)(C)Cc1cnc([C@](O)(c2ccccc2)C2CCCCC2)o1 [Example 33, [2-((R)-Cyclohexyl-hydroxy-phenyl-methyl)-oxazol-5-ylmethyl]-dimethyl-(4-methyl-pent-3-enyl)-ammonium bromide]
< 1 | C[N+](C)(CCc1ccc2c(c1)CCO2)Cc1cnc([C@](O)(c2ccccc2)C2CCCCC2)o1 [Example 34, [2-((R)-Cyclohexyl-hydroxy-phenyl-methyl)-oxazol-5-ylmethyl]-[2-(2,3-dihydro-benzofuraan-5-yl)-ethyl]-dimethyl-ammonium bromide]
1 to 10 | Cc1cccc(C[N+](C)(C)Cc2cnc([C@](O)(c3ccccc3)C3CCCCC3)o2)n1 [Example 35, [2-((R)-cyclohexyl-hydroxy-phenyl-methyl)-oxazol-5-ylmethyl]-dimethyl-(6-methyl-pyridin-2-ylmethyl)-ammonium formate]
< 1 | C[N+](C)(CCCOc1ccccc1)Cc1cnc([C@](O)(c2ccccc2)C2CCCC2)o1 [Example 37, [2-(Cyclopentyl-hydroxy-phenyl-methyl)-oxazol-5-ylmethyl]-dimethyl-(3-phenoxy-propyl)-ammonium bromide]
1 to 10 | O[C@](c1ccccc1)(c1ncc(C[N+]2(CCCOc3ccccc3)CCCCC2)o1)C1CCCCC1 [Example 38, 1-[2-(Cyclohexyl-hydroxy-phenyl-methyl)-oxazol-5-ylmethyl]-1-(3-phenoxy-propyl)-piperidinium bromide]
> 10 | O[C@@](c1ccccc1)(c1ncc(C[N+]2(CCCOc3ccccc3)CCCCC2)o1)C1CCCCC1 [Example 39, 1-[2-(Cyclohexyl-hydroxy-phenyl-methyl)-oxazol-5-ylmethyl]-1-(3-phenoxy-propyl)-piperidinium bromide]
< 1 | O[C@](c1ccccc1)(c1ncc(C[N+]2(CCCOc3ccccc3)CCCC2)o1)C1CCCCC1 [Example 40, 1-[2-(Cyclohexyl-hydroxy-phenyl-methyl)-oxazol-5-ylmethyl]-1-(3-phenoxy-propyl)-pyrrolidinium bromide]

The remaining lines, values behind:

Structure (SMILES) | Ki [nM]
CN(C)Cc1cnc([C@@](O)(c2ccccc2)C2CCCCC2)o1 (single isomer, unassigned) [Example 5] | > 10
CN(C)Cc1cnc([C@](O)(c2ccccc2)C2CCCCC2)o1 (single isomer, unassigned) [Example 6] | < 1
CN(CCCOc1ccccc1)Cc1cnc([C@@](O)(c2ccccc2)C2CCCCC2)o1 (single isomer, unassigned) [Example 14] | > 10
CN(CCCOc1ccccc1)Cc1cnc([C@](O)(c2ccccc2)C2CCCCC2)o1 (single isomer, unassigned) [Example 15] | 1 to 10
CN(Cc1ccccc1)Cc1cnc([C@](O)(c2ccccc2)C2CCCC2)o1 (single isomer, unassigned) [Example 28, {5-[(Benzyl-methyl-amino)-methyl]-oxazol-2-yl}-cyclopentyl-phenyl-methanol] | > 10
CN(Cc1ccccc1)Cc1cnc([C@@](O)(c2ccccc2)C2CCCC2)o1 (single isomer, unassigned) [Example 29, {5-[(Benzyl-methyl-amino)-methyl]-oxazol-2-yl}-cyclopentyl-phenyl-methanol] | > 10
CN(C)Cc1cnc(C(O)(c2ccccc2)c2ccccc2)o1 [Example 1, (5-Dimethylaminomethyl-oxazol-2-yl)-diphenyv-methanol] | 1 to 10
C[N+](C)(CCCOc1ccccc1)Cc1cnc(C(O)(c2ccccc2)c2ccccc2)o1 [Example 2, [2-(Hydroxy-diphenyl-methyl)-oxazol-5-ylmethyl]-dimethyl-(3-phenoxy-propyl)-ammonium formate] | < 1
CN(C)Cc1cnc(C(O)(c2ccccc2)C2CCCCC2)o1 (centres unmarked) [Example 4, Cyclohexyl-(5-dimethylaminomethyl-oxazol-2-yl)-phenyl-methanol] | < 1
C[N+](C)(CCCOc1ccccc1)Cc1cnc([C@@](O)(c2ccccc2)C2CCCCC2)o1 [Example 7, [2-((S)-Cyclohexyl-hydroxy-phenyl-methyl)-oxazol-5-ylmethyl]-dimethyl-(3-phenoxy-propyl)-ammonium bromide] | 1 to 10
C[N+](C)(CCCOc1ccccc1)Cc1cnc([C@](O)(c2ccccc2)C2CCCCC2)o1 [Example 8, [2-((R)-Cyclohexyl-hydroxy-phenyl-methyl)-oxazol-5-ylmethyl]-dimethyl-(3-phenoxy-propyl)-ammonium bromide] | < 1
CN(CCCOc1ccccc1)Cc1cnc(C(O)(c2ccccc2)C2CCCCC2)o1 (centres unmarked) [Example 13, Cyclohexyl-(5-{[methyl-(3-phenoxy-propyl)-amino]-methyl}-oxazol-2-yl)-phenyl-methanol] | 1 to 10
OC(c1ccccc1)(c1ccccc1)c1ncc(CN2CCC(Oc3ccccc3)CC2)o1 [Example 26, [5-(4-Phenoxy-piperidin-1-ylmethyl)-oxazol-2-yl]-diphenyl-methanol] | > 10
